Measured values taken from the supplement of paper PMC13380429.

Experiments:
[1] = test system: A549-ACE2 infected with SARS-CoV-2; assay: cell count relative to DMSO; higher = less toxic; conditions: 24 h
Caco-2 [2] = assay: cell viability relative to DMSO; higher = less toxic; conditions: 72 h
Calu-3 [3] = assay: as above; conditions: 72 h
HepG2 [4] = assay: as above; conditions: 72 h
U2OS [5] = assay: as above; conditions: 72 h
Vero E6 [6] = assay: as above; conditions: 72 h
[7] = test system: A549-ACE2 infected with SARS-CoV-2; assay: SARS-CoV-2 infection rate relative to DMSO; higher = more infection; conditions: 24 h
A549-ACE2 [8] = assay: phospholipidosis EC50; higher = less potent phospholipidosis inducer
A549-ACE2 [9] = assay: drug-induced phospholipidosis relative to tamoxifen; higher = more phospholipidosis
[10] = test system: A549-ACE2 infected with SARS-CoV-2; assay: morphology score (similarity to uninfected cells); higher = more like uninfected cells; conditions: 24 h
Calu-3 [11] = assay: relative viability EC50 (midpoint between 100% and the lowest measured viability); higher = less toxic; conditions: 72 h
Vero E6 [12] = assay: as above; conditions: 72 h
Caco-2 [13] = assay: drug sensitivity score (DSS) for viability; higher = more toxic; extreme values may be limits of the assay; conditions: 72 h
Calu-3 [14] = assay: as above; conditions: 72 h
HepG2 [15] = assay: as above; conditions: 72 h
U2OS [16] = assay: as above; conditions: 72 h
Vero E6 [17] = assay: as above; conditions: 72 h
Caco-2 [18] = assay: relative viability EC50 (midpoint between 100% and the lowest measured viability); higher = less toxic; conditions: 72 h
HepG2 [19] = assay: as above; conditions: 72 h
U2OS [20] = assay: as above; conditions: 72 h

O=C(NCCN1CCC2(CC1)C(=O)NCN2c1cccc(F)c1)c1ccc2ccccc2c1
Conditions	SARS-CoV-2 infection rate [%]	cell count [%]	cell viability [%]	morphology score	phospholipidosis EC50 [nM]
A549-ACE2 [8], 24 h	–	–	–	–	2210
A549-ACE2 [8], 48 h	–	–	–	–	3210
A549-ACE2 [8], 72 h	–	–	–	–	4550
Caco-2 [2], 1 nM	–	–	102	–	–
Caco-2 [2], 10 nM	–	–	93.5	–	–
Caco-2 [2], 100 nM	–	–	95.2	–	–
Caco-2 [2], 1000 nM	–	–	90.8	–	–
Caco-2 [2], 10000 nM	–	–	52.4	–	–
Calu-3 [3], 1 nM	–	–	100	–	–
Calu-3 [3], 10 nM	–	–	102	–	–
Calu-3 [3], 100 nM	–	–	94.8	–	–
Calu-3 [3], 1000 nM	–	–	95	–	–
Calu-3 [3], 10000 nM	–	–	11.2	–	–
HepG2 [4], 1 nM	–	–	104	–	–
HepG2 [4], 10 nM	–	–	106	–	–
HepG2 [4], 100 nM	–	–	102	–	–
HepG2 [4], 1000 nM	–	–	85.9	–	–
HepG2 [4], 10000 nM	–	–	54.5	–	–
U2OS [5], 1 nM	–	–	101	–	–
U2OS [5], 10 nM	–	–	104	–	–
U2OS [5], 100 nM	–	–	97.7	–	–
U2OS [5], 1000 nM	–	–	100	–	–
U2OS [5], 10000 nM	–	–	71	–	–
Vero E6 [6], 1 nM	–	–	103	–	–
Vero E6 [6], 10 nM	–	–	95.6	–	–
Vero E6 [6], 100 nM	–	–	97.4	–	–
Vero E6 [6], 1000 nM	–	–	96.4	–	–
Vero E6 [6], 10000 nM	–	–	84.8	–	–
[1], 0.3 µM	–	96	–	–	–
[1], 3 µM	–	115	–	–	–
[1], 10 µM	–	93	–	–	–
[1], 30 µM	–	3	–	–	–
[7], 0.3 µM	107	–	–	–	–
[7], 3 µM	35	–	–	–	–
[7], 10 µM	20	–	–	–	–
[7], 30 µM	48	–	–	–	–
[10], 0.3 µM	–	–	–	-0.21	–
[10], 3 µM	–	–	–	0.7	–
[10], 10 µM	–	–	–	0.39	–
[10], 30 µM	–	–	–	0.06	–

drug-induced phospholipidosis [%], A549-ACE2 [9]
Conditions	0.3 µM	0.833333 µM	3.33333 µM	6.66667 µM	10 µM	30 µM
24 h	1.19	9.12	93.1	112	127	127
48 h	2.88	7.95	76.2	107	140	134
72 h	2.25	6.48	52.3	100	120	–

Conditions	drug sensitivity score	relative viability EC50 [nM]
Caco-2 [13]	4	–
Calu-3 [11]	–	2720
Calu-3 [14]	5.7	–
HepG2 [15]	4.4	–
U2OS [16]	1.2	–
Vero E6 [12]	–	> 10000
Vero E6 [17]	0.5	–

CC[C@@H](C(=O)[C@@H](C)[C@@H](O)[C@H](C)[C@@H]1O[C@@H]([C@@H](CC)C(=O)O)CC[C@@H]1C)[C@H]1O[C@]2(C=C[C@@H](O)[C@]3(CC[C@@](C)([C@H]4CC[C@](O)(CC)[C@H](C)O4)O3)O2)[C@H](C)C[C@@H]1C [Salinomycin (Procoxacin)]
Conditions	SARS-CoV-2 infection rate, [7] [%]	cell count, [1] [%]	cell viability, Caco-2 [2] [%]	cell viability, Calu-3 [3] [%]	cell viability, HepG2 [4] [%]	cell viability, U2OS [5] [%]	cell viability, Vero E6 [6] [%]	morphology score, [10]
1 nM	–	–	100	87.9	121	100	109	–
10 nM	–	–	98.7	91.4	108	105	103	–
100 nM	–	–	69.5	80.6	103	89.2	104	–
0.3 µM	28	118	–	–	–	–	–	0.84
1000 nM	–	–	38.3	53.1	36.6	68.7	70.1	–
3 µM	19	110	–	–	–	–	–	0.8
10 µM	26	116	–	–	–	–	–	0.51
10000 nM	–	–	17.3	26.5	25.3	22.6	44.7	–
30 µM	54	101	–	–	–	–	–	0

drug-induced phospholipidosis [%], A549-ACE2 [9]
Conditions	0.3 µM	0.833333 µM	3.33333 µM	6.66667 µM	10 µM	30 µM
24 h	2.06	-1.22	-9.27	4.33	16.4	32
48 h	3.07	-6.1	-3.84	10.2	–	–
72 h	12.7	–	–	–	–	–

Conditions	drug sensitivity score	relative viability EC50 [nM]
Caco-2 [13]	15.4	–
Caco-2 [18]	–	224
Calu-3 [11]	–	360
Calu-3 [14]	11.6	–
HepG2 [15]	11.6	–
HepG2 [19]	–	513
U2OS [16]	7.8	–
U2OS [20]	–	1230
Vero E6 [12]	–	939
Vero E6 [17]	6.7	–
